Measurements as given in ChEMBL document CHEMBL1201862, “PubChem BioAssay data set” (2004).
Calls of active or inactive are those of the source.

Experiments:
[1] = test system: Streptococcus sp. 'group A'; assay: Streptococcus pyogenes SK(-)GAS viability under kanamycin – luminescence, BacTiterGlo, confirmation, counter-screen for streptokinase expression inhibitor project, dose response (AID 1900); format: functional, organism-based
[2] = THP-1 cell cytotoxicity, dose response, cytotoxicity control for non-replicating M. tuberculosis project (AID 489025); format: functional
Streptococcus = assay: GAS UMAA2166 growth inhibition – luminescence, BacTiterGlo, counter-screen for streptokinase expression inhibitor project, dose response (AID 1915); format: functional, organism-based;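 further: potency for reduction of bacterial viability or growth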
Beta-galactosidase = Beta-galactosidase (Escherichia coli, UniProt Q8VNN2); assay: detection-enzyme interference by beta-gal modulators – biochemical, E. coli enzyme, set 3, artefact control for CCR6 antagonist project, dose response (AID 504712); format: functional
Sequence of Beta-galactosidase (Q8VNN2 whole entry): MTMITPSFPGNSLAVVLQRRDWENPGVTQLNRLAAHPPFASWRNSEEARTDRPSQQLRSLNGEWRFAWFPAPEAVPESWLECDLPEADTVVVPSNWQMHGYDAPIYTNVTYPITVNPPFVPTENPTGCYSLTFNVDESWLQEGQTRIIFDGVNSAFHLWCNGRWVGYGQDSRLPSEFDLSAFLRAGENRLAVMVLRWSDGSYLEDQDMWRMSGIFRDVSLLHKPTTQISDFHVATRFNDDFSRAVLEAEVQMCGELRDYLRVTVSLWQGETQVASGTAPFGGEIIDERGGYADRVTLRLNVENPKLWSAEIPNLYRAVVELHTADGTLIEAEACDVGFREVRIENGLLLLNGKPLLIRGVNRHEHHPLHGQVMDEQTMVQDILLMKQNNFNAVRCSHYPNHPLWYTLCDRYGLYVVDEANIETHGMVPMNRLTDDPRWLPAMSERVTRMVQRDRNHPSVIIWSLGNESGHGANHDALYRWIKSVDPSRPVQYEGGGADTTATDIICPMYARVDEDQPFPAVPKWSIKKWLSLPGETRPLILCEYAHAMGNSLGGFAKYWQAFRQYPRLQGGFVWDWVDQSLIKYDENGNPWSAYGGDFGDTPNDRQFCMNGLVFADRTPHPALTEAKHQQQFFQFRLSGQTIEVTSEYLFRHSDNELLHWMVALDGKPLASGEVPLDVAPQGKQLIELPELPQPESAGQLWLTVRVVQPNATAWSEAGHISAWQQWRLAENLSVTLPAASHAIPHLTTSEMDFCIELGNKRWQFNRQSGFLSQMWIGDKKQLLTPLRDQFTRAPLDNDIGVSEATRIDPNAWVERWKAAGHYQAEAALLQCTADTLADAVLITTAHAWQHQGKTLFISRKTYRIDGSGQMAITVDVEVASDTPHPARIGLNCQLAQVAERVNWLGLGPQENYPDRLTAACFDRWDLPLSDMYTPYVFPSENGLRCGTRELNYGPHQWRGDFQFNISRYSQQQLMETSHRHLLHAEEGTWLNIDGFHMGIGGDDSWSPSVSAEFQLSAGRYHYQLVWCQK

[3] = fluconazole-exposed Candida albicans growth modulators – fluorescence, retest, confirmation (AID 2467); format: functional, cell-based
cells = format: functional
[4] = NIH-3T3 fibroblast cytotoxicity, dose response, cytotoxicity control, cell-based, fluorescence, Alamar Blue, secondary assay (AID 2327); format: functional;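 further: NIH-3T3 mouse fibroblasts cultured with fluconazole at 8 µg/mL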
[5] = target: T1, Ubiquitin-conjugating enzyme E2 N (Homo sapiens, UniProt P61088); format: functional;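 further: Dose-response confirmation in a TR-FRET assay detecting UBC13-driven polyubiquitin chain formation, inhibition measured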
T1 sequence (P61088 whole entry): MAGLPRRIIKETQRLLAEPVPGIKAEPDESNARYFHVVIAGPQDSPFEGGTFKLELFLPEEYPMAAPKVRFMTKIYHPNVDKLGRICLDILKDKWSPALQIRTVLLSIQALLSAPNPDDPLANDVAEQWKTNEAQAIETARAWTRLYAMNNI

Streptokinase A = target: T2, Streptokinase A (Streptococcus pyogenes serotype M1, UniProt P10520); assay: viability-normalized secreted streptokinase activity reduction – plasminogen activation absorbance, OD405, dose response (AID 1914); format: functional, Streptococcus pyogenes M1 GAS;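 further: secreted streptokinase activity via plasminogen activation per viability signal from cell pellet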
T2 sequence (P10520 whole entry): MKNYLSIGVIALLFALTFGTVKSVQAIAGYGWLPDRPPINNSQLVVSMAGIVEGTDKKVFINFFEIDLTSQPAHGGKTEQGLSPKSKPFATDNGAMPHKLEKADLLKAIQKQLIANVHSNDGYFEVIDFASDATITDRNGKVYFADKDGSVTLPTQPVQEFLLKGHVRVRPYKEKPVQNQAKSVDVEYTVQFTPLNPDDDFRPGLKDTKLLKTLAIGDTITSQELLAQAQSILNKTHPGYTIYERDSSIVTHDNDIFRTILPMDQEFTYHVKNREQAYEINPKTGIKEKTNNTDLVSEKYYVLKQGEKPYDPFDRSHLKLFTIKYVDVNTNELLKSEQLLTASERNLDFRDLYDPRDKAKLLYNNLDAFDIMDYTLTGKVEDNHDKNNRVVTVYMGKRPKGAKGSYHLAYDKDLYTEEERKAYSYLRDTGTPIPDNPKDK

[6] = Vero E6 cell cytotoxicity, dose response, cytotoxicity control for non-replicating M. tuberculosis project, secondary assay (AID 492998); format: functional, VeroE6; details: Vero C1008
[7] = HepG2 cell cytotoxicity, dose response, cytotoxicity control for non-replicating M. tuberculosis project (AID 489018); format: functional; details: Mycobacterium tuberculosis
Protein skinhead-1 = target: T3, Protein skinhead-1 (Caenorhabditis elegans, UniProt P34707); format: functional
T3 sequence (P34707 whole entry): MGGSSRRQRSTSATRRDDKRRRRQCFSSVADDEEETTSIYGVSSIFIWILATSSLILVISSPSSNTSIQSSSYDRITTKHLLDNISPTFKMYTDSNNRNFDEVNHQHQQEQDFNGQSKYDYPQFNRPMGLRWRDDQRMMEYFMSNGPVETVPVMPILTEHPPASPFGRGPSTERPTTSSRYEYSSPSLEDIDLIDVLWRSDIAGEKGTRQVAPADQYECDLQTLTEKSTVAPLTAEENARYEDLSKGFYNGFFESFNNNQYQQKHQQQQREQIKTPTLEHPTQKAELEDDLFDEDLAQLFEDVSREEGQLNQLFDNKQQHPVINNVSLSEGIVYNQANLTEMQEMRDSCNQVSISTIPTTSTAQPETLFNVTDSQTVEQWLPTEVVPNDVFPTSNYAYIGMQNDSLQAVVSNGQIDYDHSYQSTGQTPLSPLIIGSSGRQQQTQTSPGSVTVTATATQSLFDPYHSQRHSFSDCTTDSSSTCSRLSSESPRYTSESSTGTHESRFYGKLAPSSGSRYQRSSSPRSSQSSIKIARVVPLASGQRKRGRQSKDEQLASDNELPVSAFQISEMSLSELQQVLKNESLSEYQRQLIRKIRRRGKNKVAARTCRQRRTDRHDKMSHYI

[8] = target: T4, Short transient receptor potential channel 4 (Mus musculus, UniProt Q9QUQ5); assay: potentiation of DAMGO-evoked TRPC4 calcium signal – cell-based, HEK293 TRPC4/mu-opioid, Fluo-4 calcium, EC20 DAMGO, dose response (AID 434941); format: functional
T4 sequence (Q9QUQ5 whole entry): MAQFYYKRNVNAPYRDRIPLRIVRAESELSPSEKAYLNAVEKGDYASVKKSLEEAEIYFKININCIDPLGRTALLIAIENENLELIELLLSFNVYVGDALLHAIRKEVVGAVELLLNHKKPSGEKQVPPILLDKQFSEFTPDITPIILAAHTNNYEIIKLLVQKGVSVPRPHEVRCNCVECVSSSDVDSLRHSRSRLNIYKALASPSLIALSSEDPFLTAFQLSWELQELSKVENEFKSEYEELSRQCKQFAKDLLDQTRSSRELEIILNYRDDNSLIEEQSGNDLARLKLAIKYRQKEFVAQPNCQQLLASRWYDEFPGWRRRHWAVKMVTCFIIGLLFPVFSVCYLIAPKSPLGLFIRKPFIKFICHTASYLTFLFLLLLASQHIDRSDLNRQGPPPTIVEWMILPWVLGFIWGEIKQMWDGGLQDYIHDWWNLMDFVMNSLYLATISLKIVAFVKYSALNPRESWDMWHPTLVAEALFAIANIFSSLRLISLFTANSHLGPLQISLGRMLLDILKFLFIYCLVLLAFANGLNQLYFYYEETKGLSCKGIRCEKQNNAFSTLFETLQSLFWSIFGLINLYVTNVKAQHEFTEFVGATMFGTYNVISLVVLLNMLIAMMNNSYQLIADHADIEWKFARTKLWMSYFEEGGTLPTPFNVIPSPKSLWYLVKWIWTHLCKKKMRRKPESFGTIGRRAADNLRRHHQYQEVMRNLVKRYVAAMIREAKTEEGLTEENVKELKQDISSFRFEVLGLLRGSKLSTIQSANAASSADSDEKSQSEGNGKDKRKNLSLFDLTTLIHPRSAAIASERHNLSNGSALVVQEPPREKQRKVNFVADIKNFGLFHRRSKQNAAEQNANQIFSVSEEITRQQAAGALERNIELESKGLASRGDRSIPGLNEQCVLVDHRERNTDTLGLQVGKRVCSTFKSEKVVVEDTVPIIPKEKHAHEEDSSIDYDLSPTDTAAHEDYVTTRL

CAAX prenyl protease 2 = CAAX prenyl protease 2 (Saccharomyces cerevisiae S288c, UniProt Q03530); format: biochemical
Sequence of CAAX prenyl protease 2 (Q03530 whole entry): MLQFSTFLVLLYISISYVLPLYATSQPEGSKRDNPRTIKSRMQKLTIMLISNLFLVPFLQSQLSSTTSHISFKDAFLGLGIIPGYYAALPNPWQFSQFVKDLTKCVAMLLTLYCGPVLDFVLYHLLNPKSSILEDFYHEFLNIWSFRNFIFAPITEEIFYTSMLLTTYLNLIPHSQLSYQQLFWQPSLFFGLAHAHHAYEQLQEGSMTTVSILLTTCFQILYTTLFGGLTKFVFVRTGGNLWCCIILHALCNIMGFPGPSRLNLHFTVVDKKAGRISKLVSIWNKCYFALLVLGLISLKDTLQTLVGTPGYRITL

[9] = target: T5, DNA repair and recombination protein RAD54-like (Homo sapiens, UniProt Q92698); assay: RAD54 Holliday junction migration blockers – biochemical, fluorescence, cherry-picked samples, dose series, confirmation (AID 651657); format: functional
T5 sequence (Q92698 whole entry): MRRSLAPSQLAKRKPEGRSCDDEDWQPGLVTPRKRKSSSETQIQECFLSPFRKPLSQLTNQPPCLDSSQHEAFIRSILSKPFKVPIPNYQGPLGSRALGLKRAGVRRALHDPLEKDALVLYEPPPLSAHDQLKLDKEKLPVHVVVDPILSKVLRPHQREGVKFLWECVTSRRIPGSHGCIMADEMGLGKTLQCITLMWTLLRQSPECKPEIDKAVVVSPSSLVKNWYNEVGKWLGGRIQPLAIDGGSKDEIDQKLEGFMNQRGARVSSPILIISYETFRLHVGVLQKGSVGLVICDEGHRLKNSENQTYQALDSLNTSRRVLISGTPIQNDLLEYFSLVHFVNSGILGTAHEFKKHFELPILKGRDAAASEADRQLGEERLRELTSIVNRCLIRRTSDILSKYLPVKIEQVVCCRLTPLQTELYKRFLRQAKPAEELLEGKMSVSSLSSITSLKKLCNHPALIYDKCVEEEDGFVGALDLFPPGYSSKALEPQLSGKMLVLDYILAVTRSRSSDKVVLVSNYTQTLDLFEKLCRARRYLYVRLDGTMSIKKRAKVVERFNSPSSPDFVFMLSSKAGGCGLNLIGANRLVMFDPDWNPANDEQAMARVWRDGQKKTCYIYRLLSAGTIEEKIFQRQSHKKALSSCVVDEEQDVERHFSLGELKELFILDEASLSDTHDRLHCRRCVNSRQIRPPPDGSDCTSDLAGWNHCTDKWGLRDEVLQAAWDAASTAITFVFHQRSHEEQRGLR

[10] = target: NACHT, LRR and PYD domains-containing protein 3 (Homo sapiens, UniProt Q96P20); assay: NALP3 inhibitors in yeast, dose response, luminescent (AID 488799); format: functional
Sequence of NACHT, LRR and PYD domains-containing protein 3 (Q96P20 whole entry, the tested form may be a part): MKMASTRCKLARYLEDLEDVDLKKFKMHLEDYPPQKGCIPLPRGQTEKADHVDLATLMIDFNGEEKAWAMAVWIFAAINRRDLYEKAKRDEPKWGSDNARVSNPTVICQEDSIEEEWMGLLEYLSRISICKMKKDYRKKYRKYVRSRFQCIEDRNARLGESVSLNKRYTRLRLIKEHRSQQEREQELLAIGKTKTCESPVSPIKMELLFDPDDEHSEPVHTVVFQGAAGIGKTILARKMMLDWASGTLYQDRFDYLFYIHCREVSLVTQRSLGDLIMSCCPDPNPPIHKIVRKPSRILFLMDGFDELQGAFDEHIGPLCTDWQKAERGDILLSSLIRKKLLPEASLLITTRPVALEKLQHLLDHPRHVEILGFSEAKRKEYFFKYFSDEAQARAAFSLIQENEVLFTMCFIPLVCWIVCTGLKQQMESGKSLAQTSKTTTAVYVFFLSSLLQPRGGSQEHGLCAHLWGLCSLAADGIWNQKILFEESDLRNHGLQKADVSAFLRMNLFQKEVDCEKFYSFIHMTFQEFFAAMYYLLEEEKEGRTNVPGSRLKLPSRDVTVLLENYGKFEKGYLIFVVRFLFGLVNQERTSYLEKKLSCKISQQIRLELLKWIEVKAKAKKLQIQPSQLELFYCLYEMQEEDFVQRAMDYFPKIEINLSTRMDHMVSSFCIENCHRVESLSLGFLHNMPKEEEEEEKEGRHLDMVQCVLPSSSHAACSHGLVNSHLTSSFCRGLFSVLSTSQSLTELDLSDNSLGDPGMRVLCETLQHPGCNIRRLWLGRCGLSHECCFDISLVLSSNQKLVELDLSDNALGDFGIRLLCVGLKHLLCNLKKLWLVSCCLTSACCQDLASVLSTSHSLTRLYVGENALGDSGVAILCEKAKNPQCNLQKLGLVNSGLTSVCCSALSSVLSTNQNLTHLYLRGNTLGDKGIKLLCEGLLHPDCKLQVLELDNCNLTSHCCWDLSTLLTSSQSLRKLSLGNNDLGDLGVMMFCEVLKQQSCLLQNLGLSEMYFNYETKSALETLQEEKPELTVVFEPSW

[11] = target: Voltage-dependent T-type calcium channel subunit alpha-1H (Homo sapiens, UniProt O95180); assay: human CACNA1H calcium influx blockade – cell-based, synthetic library set 1, calcium flux (AID 493022); format: functional
Vero [12] = assay: Vero cell viability after compound exposure – synthesized analogs, set II, cytotoxicity control for West Nile virus antiviral project, SAR follow-up (AID 2402); format: functional; details: Chlorocebus sabaeus
[13] = target: Endoplasmic reticulum aminopeptidase 1 (Homo sapiens, UniProt Q9NZ08); assay: inhibition of human ERAP1 enzyme activity – biochemical, cherry-pick, set 2, plate reader, dose response (AID 743314)
Sequence of Endoplasmic reticulum aminopeptidase 1 (Q9NZ08 whole entry): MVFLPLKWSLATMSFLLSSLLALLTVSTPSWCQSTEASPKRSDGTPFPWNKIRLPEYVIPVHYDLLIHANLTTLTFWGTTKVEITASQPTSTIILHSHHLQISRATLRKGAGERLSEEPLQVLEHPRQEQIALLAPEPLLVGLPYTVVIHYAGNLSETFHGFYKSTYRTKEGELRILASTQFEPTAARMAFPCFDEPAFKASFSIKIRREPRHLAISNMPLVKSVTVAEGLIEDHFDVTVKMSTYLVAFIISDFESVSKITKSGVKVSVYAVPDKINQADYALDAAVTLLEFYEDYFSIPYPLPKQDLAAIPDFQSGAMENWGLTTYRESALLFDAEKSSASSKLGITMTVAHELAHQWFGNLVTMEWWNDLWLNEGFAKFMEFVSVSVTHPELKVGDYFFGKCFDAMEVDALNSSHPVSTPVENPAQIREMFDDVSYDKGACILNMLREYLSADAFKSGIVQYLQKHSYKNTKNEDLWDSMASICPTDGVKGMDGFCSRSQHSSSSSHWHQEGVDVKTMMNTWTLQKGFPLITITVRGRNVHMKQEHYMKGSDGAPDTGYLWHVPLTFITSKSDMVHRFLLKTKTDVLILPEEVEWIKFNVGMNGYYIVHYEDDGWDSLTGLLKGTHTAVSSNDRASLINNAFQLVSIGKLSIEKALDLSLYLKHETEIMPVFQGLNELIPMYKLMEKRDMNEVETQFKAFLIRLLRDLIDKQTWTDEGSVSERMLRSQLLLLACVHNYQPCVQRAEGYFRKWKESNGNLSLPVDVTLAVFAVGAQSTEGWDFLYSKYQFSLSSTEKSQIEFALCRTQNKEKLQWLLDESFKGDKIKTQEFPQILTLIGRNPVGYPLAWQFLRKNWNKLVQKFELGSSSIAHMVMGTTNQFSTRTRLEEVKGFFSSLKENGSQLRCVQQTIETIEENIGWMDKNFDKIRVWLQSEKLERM

[14] = A Cell Based Assay for the Identification of Probe candidate Compounds with Anti- Venezuelan Equine Encephalitis virus. [Related pubchem assays: 2409, 2419, 1621, 2238, 2405, 2024, 2065, 2402, 2414, 1635, 1650, 2244 ]; format: functional
Vero [15] = assay: cells; format: functional, cell-based; details: Chlorocebus sabaeus
Vero [16] = assay: cells; format: functional; details: Chlorocebus sabaeus
Vero [17] = assay: inhibition of WNV-induced cytopathic effect – cell-based, CPE readout (AID 1621); format: functional; details: Chlorocebus sabaeus
Vero [18] = assay: Vero 76 cell viability after compound exposure – Vero 76 cells, synthesized analogs, cytotoxicity control for West Nile virus antiviral project, SAR follow-up (AID 2414); format: functional; details: Chlorocebus sabaeus
Vero [19] = assay: antiviral protection of cells from WNV – synthesized analogs, SAR follow-up (AID 2238); format: functional, cell-based; details: Chlorocebus sabaeus
Vero [20] = assay: host cell viability loss, Vero E6 – synthesized analogs, cytotoxicity control for West Nile virus antiviral project, SAR follow-up (AID 2244); format: functional; details: Chlorocebus sabaeus
[21] = viability of uninfected HEp-2 cells – cell-based, HTS, cytotoxicity control for RSV inhibitor project, dose response (AID 2410); format: functional; details: human respiratory syncytial virus
[22] = target: Intestinal-type alkaline phosphatase (Homo sapiens, UniProt P09923); assay: Dose Response confirmation of uHTS hits from a small molecule inhibitors of human intestinal alkaline phosphatase via a luminescent assay. [Related pubchem assays (depositor defined):AID2544, AID2574]; format: functional
Sequence of Intestinal-type alkaline phosphatase (P09923 whole entry): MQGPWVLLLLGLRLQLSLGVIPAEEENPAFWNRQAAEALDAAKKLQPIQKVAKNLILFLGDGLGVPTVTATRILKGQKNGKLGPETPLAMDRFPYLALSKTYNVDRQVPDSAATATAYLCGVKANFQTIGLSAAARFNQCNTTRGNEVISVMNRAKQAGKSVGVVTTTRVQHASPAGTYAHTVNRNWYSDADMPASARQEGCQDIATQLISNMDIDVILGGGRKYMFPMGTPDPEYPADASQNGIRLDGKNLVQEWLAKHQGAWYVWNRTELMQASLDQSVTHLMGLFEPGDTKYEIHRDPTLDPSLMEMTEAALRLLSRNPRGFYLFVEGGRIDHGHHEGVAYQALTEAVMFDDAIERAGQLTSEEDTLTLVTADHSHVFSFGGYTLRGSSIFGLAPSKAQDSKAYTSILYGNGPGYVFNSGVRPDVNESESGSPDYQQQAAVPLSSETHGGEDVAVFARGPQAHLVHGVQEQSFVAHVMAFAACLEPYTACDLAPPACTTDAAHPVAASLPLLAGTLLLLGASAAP

[23] = target: FAD-linked sulfhydryl oxidase ALR (Homo sapiens, UniProt P55789); assay: ALR-catalysed DTT oxidation blockers – biochemical, H2O2 detection, luminescence, cherry-pick, dose response (AID 493248)
Sequence of FAD-linked sulfhydryl oxidase ALR (P55789 whole entry, the tested form may be a part): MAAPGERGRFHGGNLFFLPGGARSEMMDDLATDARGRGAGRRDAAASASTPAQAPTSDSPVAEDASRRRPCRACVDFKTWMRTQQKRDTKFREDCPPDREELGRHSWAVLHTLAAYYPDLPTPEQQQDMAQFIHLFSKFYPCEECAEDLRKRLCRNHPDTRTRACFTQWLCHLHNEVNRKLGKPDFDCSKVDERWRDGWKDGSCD

[24] = target: Envelope glycoprotein gp160 (Human immunodeficiency virus 1, UniProt Q6QLK5); assay: cell-free HIV fusion peptide-binding blockers – biochemical, uHTS, fluorescence dequenching, […] (AID 1986)
Sequence of Envelope glycoprotein gp160 (Q6QLK5 whole entry, the tested form may be a part): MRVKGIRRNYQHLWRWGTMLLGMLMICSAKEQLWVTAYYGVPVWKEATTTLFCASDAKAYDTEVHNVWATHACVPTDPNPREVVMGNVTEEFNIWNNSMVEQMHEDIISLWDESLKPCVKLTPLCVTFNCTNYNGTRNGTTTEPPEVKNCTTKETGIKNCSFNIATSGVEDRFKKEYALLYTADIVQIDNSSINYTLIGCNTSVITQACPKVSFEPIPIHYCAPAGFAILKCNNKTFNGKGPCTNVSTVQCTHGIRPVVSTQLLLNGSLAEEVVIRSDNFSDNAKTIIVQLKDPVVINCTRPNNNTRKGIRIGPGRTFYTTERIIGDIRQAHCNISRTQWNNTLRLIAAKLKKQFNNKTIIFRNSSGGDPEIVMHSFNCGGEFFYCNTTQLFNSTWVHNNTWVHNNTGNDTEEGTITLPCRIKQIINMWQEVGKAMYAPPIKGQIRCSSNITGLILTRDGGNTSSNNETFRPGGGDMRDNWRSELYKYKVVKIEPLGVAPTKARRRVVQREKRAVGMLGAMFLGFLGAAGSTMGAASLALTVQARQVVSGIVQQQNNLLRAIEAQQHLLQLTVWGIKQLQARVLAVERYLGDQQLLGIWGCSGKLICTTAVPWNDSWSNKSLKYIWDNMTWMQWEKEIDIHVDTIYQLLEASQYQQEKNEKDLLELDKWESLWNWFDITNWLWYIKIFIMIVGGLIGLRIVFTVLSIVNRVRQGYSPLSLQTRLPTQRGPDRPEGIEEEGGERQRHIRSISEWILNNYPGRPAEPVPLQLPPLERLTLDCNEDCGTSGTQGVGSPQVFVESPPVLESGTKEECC

SMILES: CN(C)CCCNc1cc(C(C)(C)C)nc2c(-c3ccc(Cl)cc3)cnn12
- EC50 [1]: 1.91 µM (active)
- CC50 [2]: 11.4 µM (active)
- EC50 (Streptococcus): 8.08 µM (active)
- IC50 (Beta-galactosidase): > 66.6 µM (inactive)
- EC50 [3]: > 38 µM (not active)
- IC50 (cells): 12.4 µM (active)
- EC50 [4]: 12.5 µM (active)
- IC50 [5]: > 20 µM (inactive)
- EC50 (Streptokinase A): > 150 µM (not active)
- CC50 [6]: 10.8 µM (active)
- CC50 [7]: 13 µM (active)
- IC50 (Protein skinhead-1): > 100 µM (inactive)

SMILES: CCCCN(C)CCNC(=O)c1cc2c(-c3cccc(OC)c3)nn(C)c2s1
- EC50 [8]: 0.07 µM (active)
- AC50 (CAAX prenyl protease 2): 16 µM (active)
- IC50 [5]: > 20 µM (inactive)
- AC50 [9]: 31.5 µM (active)

SMILES: Brc1ccc(-n2cnc(-c3ccccc3)c2)cc1
- IC50 [10]: 35.4 µM (active)
- IC50 (Protein skinhead-1): > 100 µM (inactive)

SMILES: Cc1ccc(-c2nnc(NC(=O)COc3ccccc3F)o2)cc1C
- EC50 [11]: 2.3 µM (active)

SMILES: CC1CCCC(C)N1CCCNC(=O)c1cc2c(s1)-c1ccccc1OC2 (stereo not given)
- CC50 (Vero [12]): 11 µM (active)
- AC50 [13]: 12.5 µM (active)
- IC50 [14]: 11.8 µM (active)
- IC50 (Vero [15]): > 25 µM (active)
- CC50 (Vero [16]): > 25 µM (active)
- IC50 (Vero [17]): 19 µM (active)
- CC50 (Vero [18]): 24.3 µM (active)
- IC50 (Vero [19]): > 40 µM (active)
- CC50 (Vero [20]): 12.4 µM (active)
- CC50 [21]: 18.2 µM (active)

SMILES: CC(=O)N1CCOc2ccc(S(=O)(=O)N3CCCC(C)C3)cc21 (stereo not given)
- IC50 [22]: > 100 µM (inactive)

SMILES: O=C(O)c1cccc2c(-c3ccccc3)c(-c3ccccc3)[nH]c12
- EC50 [1]: 6.24 µM (active)
- AC50 [23]: 4.56 µM (active)
- EC50 (Streptococcus): > 150 µM (not active)
- IC50 [24]: 16.8 µM (active)
- EC50 (Streptokinase A): 15.6 µM (active)
